According to patent US20240279214A1, “ALPHA4 BETA7 INEGRIN ANTAGONISTS AND USES THEREOF” (XinThera, Inc., priority 2022, published 2024):

These compounds were tested against T1, a4b7 integrin interaction with MadCAM-1 (Homo sapiens, UniProt P13612+P26010) (assay: a4b7 Cell Capture Assay (RPMI8866 cells on MAdCAM-1 Fc coated plates)). Conditions: 50% human serum, 1 mM MgCl2, 1 hour incubation, CellTiter-Glo luminescence, read-out: a4B7 cell capture assay RMPI8866-MadCAM EC50.
T1 construct: capture of a4b7 integrin expressing cells, RPMI8866; endogenous in cells; host or cells: RPMI8866
T1 sequence (P13612 34-1032): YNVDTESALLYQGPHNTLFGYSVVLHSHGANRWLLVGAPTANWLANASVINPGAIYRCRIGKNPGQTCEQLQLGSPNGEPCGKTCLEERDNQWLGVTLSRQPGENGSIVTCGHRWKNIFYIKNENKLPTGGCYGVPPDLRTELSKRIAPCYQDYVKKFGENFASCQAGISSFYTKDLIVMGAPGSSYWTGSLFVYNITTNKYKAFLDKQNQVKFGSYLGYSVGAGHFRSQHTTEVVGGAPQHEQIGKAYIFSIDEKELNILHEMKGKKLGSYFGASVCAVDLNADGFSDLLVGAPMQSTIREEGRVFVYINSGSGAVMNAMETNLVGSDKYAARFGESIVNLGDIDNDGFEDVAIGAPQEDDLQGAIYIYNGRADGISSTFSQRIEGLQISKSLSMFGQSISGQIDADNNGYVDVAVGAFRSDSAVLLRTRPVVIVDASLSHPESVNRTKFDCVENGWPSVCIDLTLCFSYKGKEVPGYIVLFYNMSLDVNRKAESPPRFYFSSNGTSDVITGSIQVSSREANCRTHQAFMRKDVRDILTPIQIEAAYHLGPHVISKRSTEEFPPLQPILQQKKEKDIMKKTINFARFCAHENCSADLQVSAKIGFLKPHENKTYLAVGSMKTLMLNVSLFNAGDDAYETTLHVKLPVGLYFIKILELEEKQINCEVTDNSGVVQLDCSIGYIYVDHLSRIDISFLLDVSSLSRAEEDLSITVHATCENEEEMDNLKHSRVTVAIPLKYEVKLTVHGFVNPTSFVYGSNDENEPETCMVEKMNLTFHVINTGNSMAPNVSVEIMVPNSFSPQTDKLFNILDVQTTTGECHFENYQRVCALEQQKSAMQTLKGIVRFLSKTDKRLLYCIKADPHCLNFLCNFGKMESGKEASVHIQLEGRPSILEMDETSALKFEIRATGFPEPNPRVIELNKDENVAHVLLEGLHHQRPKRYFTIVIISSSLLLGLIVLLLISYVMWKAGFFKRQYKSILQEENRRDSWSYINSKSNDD
T1 sequence (P26010 20-798): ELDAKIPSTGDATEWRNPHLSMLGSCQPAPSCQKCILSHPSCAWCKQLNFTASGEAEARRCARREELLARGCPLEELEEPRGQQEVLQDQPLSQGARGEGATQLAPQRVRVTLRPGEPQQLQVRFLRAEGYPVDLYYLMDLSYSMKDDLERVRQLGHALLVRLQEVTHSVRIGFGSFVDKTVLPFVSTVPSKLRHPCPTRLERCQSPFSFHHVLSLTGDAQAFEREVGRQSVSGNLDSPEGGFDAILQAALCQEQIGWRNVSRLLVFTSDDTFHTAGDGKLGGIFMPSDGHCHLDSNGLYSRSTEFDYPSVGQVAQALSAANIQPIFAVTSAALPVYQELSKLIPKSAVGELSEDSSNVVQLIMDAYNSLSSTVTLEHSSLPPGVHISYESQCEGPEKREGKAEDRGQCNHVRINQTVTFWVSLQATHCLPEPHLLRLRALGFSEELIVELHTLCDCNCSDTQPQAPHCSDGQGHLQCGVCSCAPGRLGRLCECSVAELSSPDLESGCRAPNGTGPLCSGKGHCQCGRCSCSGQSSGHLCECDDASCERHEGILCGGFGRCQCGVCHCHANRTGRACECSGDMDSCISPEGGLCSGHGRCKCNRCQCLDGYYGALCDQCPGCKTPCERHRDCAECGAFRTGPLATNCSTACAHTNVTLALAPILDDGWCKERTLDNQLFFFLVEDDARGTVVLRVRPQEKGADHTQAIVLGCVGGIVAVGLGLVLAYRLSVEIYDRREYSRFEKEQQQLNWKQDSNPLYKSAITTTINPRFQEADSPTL
Type: cell-based
Experimental: The potency of inhibitors in preventing a4b7 integrin interaction with MadCAM-1 was measured by monitoring the capture of a4b7 integrin expressing cells, RPMI8866, on recombinant human MAdCAM-1 Fc chimera protein-coated plates. The protein was a fusion between human MAdCAM-1 (Met1-Gln333, Accession #AAY82472) and human IgG1 (Pro100-Lys330)] (R&D Systems, Catalog #6056-MC). 96-well plates (Thermofisher, Catalog #136102) were coated with the recombinant protein by dispensing 100 μL (1.0 μg/mL) per well. After a quick spin to settle down the coating solution using a plate centrifuge, plates were incubated overnight at 4° C. in a moisture chamber. On Day 2, the plates were washed with PBS using a Bluecatbio Blue®Washer (GentleSpin wash, 3 cycles, pressure=1, volume 150 uL). Blocking solution (1.0% BSA in PBS, Sigma, Catalog #A7979) was then added at 200 uL/well, and the plates were quickly spun to settle down blocking buffer and incubated in cell culture incubator at 37° C. and 5% CO2 for 1 hour. The plates were then washed with 0.1% BSA in PBS using a Bluecatbio Blue®Washer (GentleSpin wash, 3 cycles, pressure=1, volume 150 uL). RPMI8866 cells suspended in assay medium (1 mM MgCl2 25 mM HEPES and 50% human serum, Sigma, Catalog #H4522) at a density of 1.0×10^6 cells/mL were added at 100 uL/well. Each compound evaluated was prepared as a DMSO stock solution. Test compounds were evaluated with a 9-point serial dilution curve (1000, 333.3, 111.1, 55.6, 27.8, 13.9, 6.9, 2.3, and 0.77 nM)) and were added to the plates using a Tecan D.30e Digita dispenser, the dispensed stock is 100 nL and the final DMSO concentration is 0.1%. Potent compounds were re-evaluated at a new 9-point serial dilution curve (100, 33.3, 11.1, 5.6, 2.8, 1.4, 0.69, 0.23, and 0.08 nM). Each titration curves were performed in triplicate on the same plate, and most of compounds were retested in different dates multiple times. The plates were shaken at 300 rpm on orbital plate shaker for 3 minutes to mix the cells and compounds, quickly spun to settle the cells and solution, and incubated in cell culture incubator at 37° C. and 5% CO2. After 1 hour incubation, the unbound cells were washed away with RPMI1640 medium supplemented with 1 mM MgCl2 and 1% BSA) (wash buffer) using a Bluecatbio Blue®Washer (MagbeadsSpin wash, 1 cycle, pressure 1, volume=150 uL). After wash buffer removal, A mixture of wash buffer/CellTiter-Glo® Reagent (Pormega, catalog #G7573) at 1:1 (V/V) was added at volume of 100 uL to each well. The plates were placed in a chamber at 25° C. and incubated for 30 minutes. Luminescence was recorded using a Envision plate reader 2105 according to CellTiter-Glo protocol.
The mean luminescence signals from negative control wells without MadCAM-1 coating and compound treatment (cells only) was defined as 100% binding inhibition, and the mean luminescence signals from positive control wells with MadCAM-1 coating but without compound treatment (MadCAM-1 and cells only) was defined as 0% binding inhibition. The luminescence signals from other compound treated wells were normalized in percentage scale accordingly. The normalized mean % inhibition data were plotted against logarithmic compound concentration in nanomolar and were fitted with 4-parameter logistic model to obtain IC50 for each compound.
Cc1cc2cc(c1F)[C@H](CC(=O)O)NC(=O)[C@@H](n1ccc(C(F)(F)F)cc1=O)c1cc(ccc1F)Oc1cccc(C)c1-2 (single isomer, unassigned) [Example 42] was tested, and the EC50 was 13 nM.
Cc1cccc2c1-c1ccc(F)c(c1)[C@H](CC(=O)O)NC(=O)[C@@H](n1cc(CCN3CC(F)C3)c(C(F)(F)F)cc1=O)c1cc(ccc1F)O2 [Example 32, 2-((5S,8S)-1^4,4^4-difluoro-5-(5-(2-(3-fluoroazetidin-1-yl)ethyl)-2-oxo-4-(trifluoromethyl)pyridin-1(2H)-yl)-2^6-methyl-6-oxo-3-oxa-7-aza-1,4(1,3),2(1,2)-tribenzenacyclooctaphane-8-yl)acetic acid] was tested, and the EC50 was 0.95 nM.
Work on Cc1cc2cc(c1F)[C@H](CC(=O)O)NC(=O)[C@@H](n1cc(CCN3CC(F)C3)c(C(F)(F)F)cc1=O)c1cc(ccc1F)Oc1cc(N3C4CCC3COC4)cc(C)c1-2 (relative stereo) [Example 56, [(14R*,17S)-12,19-difluoro-14-{5-[2-(3-fluoroazetidin-1-yl)ethyl]-2-oxo-4-(trifluoromethyl)pyridin-1-yl}-3,20-dimethyl-5-{3-oxa-8-azabicyclo[3.2.1]octan-8-yl}-15-oxo-8-oxa-16-azatetracyclo[16.3.1.1^{9,13}.0^{2,7}]tricosa-1(22),2(7),3,5,9,11,13(23),18,20-nonaen-17-yl]acetic acid] yielded an EC50 of 0.97 nM.
With Cc1cc2cc(c1F)[C@H](CC(=O)O)NC(=O)[C@@H](n1cc(CCN3CC(F)C3)c(C(F)(F)F)cc1=O)c1cc(ccc1F)Oc1ccc(F)cc1-2 (single isomer, unassigned) [Example 52] the EC50 was 180 nM.
Cc1cccc2c1-c1cc(c(F)c(C(F)(F)F)c1)[C@H](CC(=O)O)NC(=O)[C@@H](n1cc(CCN3CC(F)C3)c(C(F)(F)F)cc1=O)c1cc(cc(C(F)(F)F)c1)O2 (relative stereo) [Example 14, [(14R*,17S)-19-fluoro-14-{5-[2-(3-fluoroazetidin-1-yl)ethyl]-2-oxo-4-(trifluoromethyl)pyridin-1-yl}-3-methyl-15-oxo-11,20-bis(trifluoromethyl)-8-oxa-16-azatetracyclo[16.3.1.1^{9,13}.0^{2,7}]tricosa-1(22),2(7),3,5,9,11,13(23),18,20-nonaen-17-yl]acetic acid] showed an EC50 of 38 nM.
For Cc1cccc2c1-c1cc(c(F)c(C(F)(F)F)c1)[C@H](CC(=O)O)NC(=O)[C@@H](n1cc(CCN(C)C)c(C(F)(F)F)cc1=O)c1cccc(c1)O2 (relative stereo) [Example 16, [(14R*,17S)-14-{5-[2-(dimethylamino)ethyl]-2-oxo-4-(trifluoromethyl)pyridin-1-yl}-19-fluoro-3-methyl-15-oxo-20-(trifluoromethyl)-8-oxa-16-azatetracyclo[16.3.1.1^{9,13}.0^{2,7}]tricosa-1(22),2(7),3,5,9,11,13(23),18,20-nonaen-17-yl]acetic acid], the EC50 was 14 nM.
For Cc1cc2cc(c1F)[C@H](CC(=O)O)NC(=O)[C@@H](n1cc(CCCN3CCC3)c(C(F)(F)F)cc1=O)c1cc(ccc1F)Oc1cccc(C)c1-2 (single isomer, unassigned) [Example 21], the EC50 was 0.079 nM.
In the case of Cc1cc2cc(c1F)[C@H](CC(=O)O)NC(=O)[C@@H](n1cc(CCN3CC(F)C3)c(C(F)(F)F)cc1=O)c1cc(ccc1F)Oc1nn(C)c(C)c1-2 (relative stereo) [Example 40, rel-[(13S,16S)-11,18-difluoro-13-{5-[2-(3-fluoroazetidin-1-yl)ethyl]-2-oxo-4-(trifluoromethyl)pyridin-1-yl}-3,4,19-trimethyl-14-oxo-7-oxa-4,5,15-triazatetracyclo[15.3.1.1^{8,12}.0^{2,6}]docosa-1(21),2,5,8,10,12(22),17,19-octaen-16-yl]acetic acid], the EC50 is reported as 42 nM.
Work on Cc1cccc2c1-c1cc(C3CC3)c(F)c(c1)[C@H](CC(=O)O)NC(=O)[C@@H](n1ccc(C(F)(F)F)cc1=O)c1cc(ccc1F)CO2 (single isomer, unassigned) [Example 78] yielded an EC50 of 360 nM.
Compound Cc1cc2cc(c1F)[C@H](CC(=O)O)NC(=O)[C@@H](n1ccc(C(F)(F)F)cc1=O)c1cc(ccc1F)COc1cccc(C)c1-2 (single isomer, unassigned) [Example 44] has an EC50 of 160 nM.
For O=C(O)C[C@@H]1NC(=O)[C@@H](n2cc(CCN3CC(F)C3)c(C(F)(F)F)cc2=O)c2cccc(c2)Oc2cccc(C(F)(F)F)c2-c2cc1c(F)c(C(F)(F)F)c2 (relative stereo) [Example 13, [(14R*,17S)-19-fluoro-14-{5-[2-(3-fluoroazetidin-1-yl)ethyl]-2-oxo-4-(trifluoromethyl)pyridin-1-yl}-15-oxo-3,20-bis(trifluoromethyl)-8-oxa-16-azatetracyclo[16.3.1.1^{9,13}.0^{2,7}]tricosa-1(22),2(7),3,5,9,11,13(23),18,20-nonaen-17-yl]acetic acid], the EC50 was > 1000 nM.
Cc1cc2cc(c1F)[C@H](CC(=O)O)NC(=O)[C@@H](n1cc(CCN3CC(F)C3)c(C(F)(F)F)cc1=O)c1cc(ccc1F)Oc1nn(CC3CC3)cc1-2 (single isomer, unassigned) [Example 60] showed an EC50 of 380 nM.
